From patent publication US4603123A, “Compounds having antiinflammatory activity, obtained by complexation of piroxican with β-cyclodextrin, and pharmaceutical compositions containing them” (priority 1984, dated 1986)
Values after ≈ are worked out from the molar mass of the structure shown. Like-named read-outs stand apart in the source and are kept apart here.

How the values were obtained:
[1] = Dissolution test in water, Dissolution Tester, 25° C.
Experimental: 7.5 Grams of piroxicam/β-cyclodextrin were poured into 150 ml of water at 25° C. under stirring. At predetermined time intervals, samples of 5 ml of suspension were collected and filtered through 0.2μ. […] were diluted 1 to 500 with 0.1 N NaOH in methanol immediately after the filtration. The whole was again filtered through paper.
The amount of piroxicam in the solution was spectrophotometrically determined at 358 nm against a solution of 0.1 N NaOH in methanol.

[2] = tested on: carrageenin induced oedema; test: Carrageenin induced oedema test in rats (antiinflammatory activity); type: in vivo, male Crl:CD(SD) rats; settings: oral, rat
Experimental: The antiinflammatory activity was determined by means of the carrageenin induced oedema test, according to the methodology reported by C. A. Winter et al in Proc. Soc. Exptl. […] As the test animals, male Crl:CD(SD) rats, weighing 150-170 g, were employed. The animals were housed under standard conditions and fastened for 18 hours before the beginning of the experiment. Water was available ad libitum.
The obtained results were expressed both as ED50 values, determined in correspondence of the activity peak on the regression line log. of the dosage-% inhibition of the oedema, and as ED30 values, calculated on the regression lines log. of the dosage-% inhibition of the oedema over the controls, determined as the mean value of AUC (area under Curve representing the development of the paw volume in the time).
In addition, it was determined the kinetic of the activity of the two formulations under investigation, by calculating the ED30 values at 2, 3, 4 and 6 hours since the carrageenin injection.

[3] = Gastrolesive action in rats and therapeutic index UD0/ED30; settings: in vivo, rat
Experimental: The gastrolesive action was tested on rats fastened for 18 hours, through macroscopical examination of the gastric mucosa, 5 hours after the administration of the substances under investigation. For each treatment, the regression lines log. of the dosage-mm of ulceration (single values for each animal) were determined. These lines allowed to calculate, for each compound, the UD0 values i.e., the maximum dosages at which no lesions are observed.
Finally, it was also determined the therapeutic index of the new compound piroxicam/β-cyclodextrin, in comparison with piroxicam. Said index was expressed as the ratio UD0 /ED30 wherein UD0 and ED30 are as above defined.

[4] = Plasma kinetics of piroxicam in the rabbit after oral administration; type: in vivo, male New Zealand White rabbits
Experimental: For these investigations, male New Zealand White rabbits, weighing 2.5-3.0 kg were employed. The animals were kept at constant temperature and fastened for the 17 hours preceeding the experiments. Water was given ad libitum. […] The determination of the plasma levels of the active principle, at the different times since the administration, was carried out by High Pressure Liquid Chromatography (HPLC).

[5] = Plasma kinetics of piroxicam in the dog after oral administration; parameters: species or system Beagle dogs; settings: in vivo, 10 mg/kg of active ingredient
Experimental: The dogs were kept at constant temperature and fastened at least for 17 hours before the beginning of the experiment. Water was available ad libitum.
The two substances to be investigated were orally administered at a dosage corresponding to 10 mg/kg of active ingredient, according to a crossover scheme. The determination of the plasma concentrations of the active ingredient, at a different time intervals since the administration, was carried out by High Pressure Liquid Chromatography (HPLC).

[6] = tested on: phenylquinone induced writhing; test: Phenylquinone induced writhing test (kinetic of the analgesic activity); type: in vivo, female NMRI mice; settings: mouse, oral, 0.5 mg/kg of active substance
Experimental: The employed experimental model is a slight modification of that described by Siegmund, J. Pharm. Exptl. Ther., 119, 184, 1957.
Female NMRI mice, housed under standard conditions, fastened for 18 hours, were employed as the test animals. Water was available ad libitum.
The compounds under study were orally administered by oesophageal gavage, suspended in an aqueous solution containing 0.5% of carboxymethylcellulose, at a concentration corresponding to 0.5 mg/kg of active substance (piroxicam).

[7] = background; cited from earlier work
gastrointestinal mucosa = settings: background; cited from earlier work
[8] = plasma, 10 mg/kg of active ingredient, mean

CN1C(C(=O)Nc2ccccn2)=C(O)c2ccccc2S1(=O)=O [Piroxicam, 4-hydroxy-2-methyl-N-2-pyridyl-2H-1,2-benzothiazine-3-carboxamide-1,1-dioxide]
solubility at 0.5 h [1]: 111 µg/mL (≈ 335 µM)
ED30 ([2]; Rat2, 2 h since carrageenin injection, read-out: ED30 at 2 h): 0.6 mg/kg
ED30 ([2]; 3 h since carrageenin injection, read-out: ED30 at 3 h): 1.6 mg/kg
ED30 ([2]; 4 h since carrageenin injection, read-out: ED30 at 4 h): 3.1 mg/kg
ED30 ([2]; 6 h since carrageenin injection, read-out: ED30 at 6 h): 9.7 mg/kg
ED30 ([2]; AUC of paw volume in time, dosage as piroxicam, read-out: Activity on AUC ED30): 2.5 mg/kg
ED50 ([2]; at the activity peak, dosage as piroxicam): 2.3 mg/kg
NOAEL at 5 h ([3]; 5 hours after administration, dosage as piroxicam, read-out: Gastrolesive activity UD0 (maximum dosage at which no lesions are observed)): 1.1 mg/kg
selectivity ratio ([3]; piroxicam = 1, read-out: Relative therapeutic index): 1
selectivity ratio ([3]; read-out: Absolute therapeutic index (UD0/ED30)): 0.44
bioavailability [4]: almost complete bioavailability
Tmax ([4]; plasma, 10 mg/kg of active ingredient): 2.3 h
concentration at 0.5 h ([4]; plasma, 10 mg/kg of active ingredient, 0.50 h, mean): 4300 ng/mL
concentration at 1 h ([4]; plasma, 10 mg/kg of active ingredient, 1 h, mean): 7400 ng/mL
concentration at 2 h ([4]; plasma, 10 mg/kg of active ingredient, 2 h, mean): 10900 ng/mL
concentration at 4 h ([4]; plasma, 10 mg/kg of active ingredient, 4 h, mean): 10100 ng/mL
concentration at 8 h ([4]; plasma, 10 mg/kg of active ingredient, 8 h, mean): 6500 ng/mL
concentration at 24 h ([4]; plasma, 10 mg/kg of active ingredient, 24 h, mean): 300 ng/mL
AUC(0-t) at 2 h [4, 8]: 13200 ng·h/mL
AUC(0-t) at 24 h [4, 8]: 121000 ng·h/mL
Cmax [4, 8]: 11700 ng/mL
Tmax [5]: 1.8 h
concentration at 0.25 h ([5]; 0.25 h, mean): 1000 ng/mL
concentration at 0.5 h ([5]; 0.50 h, mean): 2800 ng/mL
concentration at 1 h ([5]; 1 h, mean): 12700 ng/mL
concentration at 2 h ([5]; 2 h, mean): 19400 ng/mL
concentration at 4 h ([5]; 4 h, mean): 18900 ng/mL
concentration at 8 h ([5]; 8 h, mean): 14200 ng/mL
concentration at 24 h ([5]; 24 h, mean): 11500 ng/mL
concentration at 48 h ([5]; 48 h, mean): 9200 ng/mL
concentration at 72 h ([5]; 72 h, mean): 3000 ng/mL
AUC(0-t) at 2 h ([5]; mean): 20400 ng·h/mL
AUC(0-t) at 72 h ([5]; mean): 724000 ng·h/mL
Cmax ([5]; mean): 20000 ng/mL
time of the activity peak (analgesic) [6]: 20 min
percentage of the maximum evidenced inhibition (writhing) at 5 minutes ([6]; 5 minutes after the administration): 78%
solubility in water [7]: practically insoluble in water
effects on the gastrointestinal mucosa (gastrointestinal mucosa): responsible of lesive effects on the gastrointestinal mucosa
